The record followed here is ChEMBL document CHEMBL1130869, “Peptide-based inhibitors of the hepatitis C virus serine protease” (Bioorg Med Chem Lett, 1998).

By IC50 is commonly meant the concentration at which inhibition is half-maximal. A higher IC50 goes with weaker potency in that assay.

Starred links: 1 amine or outer side, 2 acyl side, 3 side chain; linkers in the order of their positions; H or OH if unused. Non-standard residues stand in square brackets, D forms with d. Residues, ends and D or L forms follow the SMILES beside them. Pen = CC(C)(S)[C@H](N)C(=O)O; Suc = O=C(CCC(=O)[*:2])[*:1]; Tle = CC(C)(C)[C@H](N)C(=O)O; Dap = NC[C@H](N)C(=O)O

The target of one experiment is NS3 (Hepatitis C virus, UniProt A3EZJ3). In words: Inhibitory activity against NS3-4A pep protease.
Chain of NS3 (A3EZJ3 whole entry): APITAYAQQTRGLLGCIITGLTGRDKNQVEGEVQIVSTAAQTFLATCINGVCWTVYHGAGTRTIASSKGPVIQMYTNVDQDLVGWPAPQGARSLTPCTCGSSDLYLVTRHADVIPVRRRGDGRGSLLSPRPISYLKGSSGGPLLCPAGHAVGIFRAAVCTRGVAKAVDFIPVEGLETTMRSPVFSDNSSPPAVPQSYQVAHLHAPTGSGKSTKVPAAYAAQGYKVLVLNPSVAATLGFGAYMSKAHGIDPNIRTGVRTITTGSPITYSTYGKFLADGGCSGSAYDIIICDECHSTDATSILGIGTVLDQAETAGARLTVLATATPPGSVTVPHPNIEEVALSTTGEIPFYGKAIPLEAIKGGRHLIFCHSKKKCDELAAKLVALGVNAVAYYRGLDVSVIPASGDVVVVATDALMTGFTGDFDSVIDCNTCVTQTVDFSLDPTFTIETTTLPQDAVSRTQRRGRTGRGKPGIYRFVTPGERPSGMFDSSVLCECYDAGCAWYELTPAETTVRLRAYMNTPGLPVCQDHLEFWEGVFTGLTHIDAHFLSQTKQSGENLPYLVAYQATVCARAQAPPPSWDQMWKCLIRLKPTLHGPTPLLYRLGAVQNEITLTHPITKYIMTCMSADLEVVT
Conditions: not given
Also noted: species or system Hepacivirus hominis.
In turn, `CC[C@H](C)[C@H](NC(=O)[C@@H](NC(=O)[C@H](CC(=O)O)NC(C)=O)C(C)C)C(=O)N[C@H](C(=O)N1CCC[C@H]1C(=O)N[C@@H](CS)C(=O)O)C(C)C` displayed an IC50 of 52 µM. That is a double-digit micromolar value.

`CC[C@H](C)[C@H](NC(=O)[C@H](CC(=O)O)NC(=O)CCC(=O)O)C(=O)N[C@H](C(=O)N1CCC[C@H]1C(=O)N[C@@H](CS)C(=O)O)C(C)C`: the half-inhibitory concentration (IC50) was determined as 33 µM.

On to `CC[C@H](C)[C@H](NC(=O)[C@H](CC(=O)O)NC(=O)[C@H](C)NC(C)=O)C(=O)N[C@H](C(=O)N1CCC[C@H]1C(=O)N[C@@H](CS)C(=O)O)C(C)C`, for which the IC50 was 200 µM. For the compound `CC[C@@H](C)[C@@H](NC(=O)[C@H](CC(=O)O)NC(=O)[C@H](CC(=O)O)NC(C)=O)C(=O)N[C@H](C(=O)N1CCC[C@H]1C(=O)N[C@@H](CS)C(=O)O)C(C)C`, the IC50 was found to be 800 µM. Same read-out and setting: as for `CC[C@H](C)[C@H](NC(=O)[C@H](CC(=O)O)NC(=O)[C@@H](CC(=O)O)NC(C)=O)C(=O)N[C@H](C(=O)N1CCC[C@H]1C(=O)N[C@@H](CS)C(=O)O)C(C)C`, the figure is 40 µM; as for `CC[C@H](C)[C@H](NC(=O)[C@H](CC(=O)O)NC(=O)[C@H](CC(=O)O)NC(C)=O)C(=O)N[C@H](C(=O)N1CCC[C@H]1C(=O)N[C@@H](CS)C(=O)O)C(C)C` [listing 1 of 2 here], 28 µM. The same measure, in the same setting: as for `CC[C@H](C)[C@H](NC(=O)[C@H](CC(=O)O)NC(=O)[C@H](CC(=O)O)NC(C)=O)C(=O)N[C@H](C(=O)N1CCC[C@H]1C(=O)N[C@@H](CS)C(=O)O)C(C)C` [listing 2 of 2 here], the figure is > 1000 µM. Still for that read-out and setting: under `CC[C@H](C)[C@H](NC(=O)[C@H](CC(=O)O)NC(=O)[C@H](CC(=O)O)NC(C)=O)C(=O)N[C@H](C(=O)N1CCC[C@H]1C(=O)N[C@@H](CSC)C(=O)O)C(C)C` (Ac-DDIVPC(Me)-OH) stands 160 µM; under `CC[C@H](C)[C@H](NC(=O)[C@H](CC(=O)O)NC(=O)[C@H](CC(=O)O)NC(C)=O)C(=O)N[C@H](C(=O)N1CCC[C@H]1C(=O)N[C@@H](CN)C(=O)O)C(C)C` (Ac-DDIVP[Dap]-OH), > 1000 µM; under `CC[C@H](C)[C@H](NC(=O)[C@H](CC(=O)O)NC(=O)[C@H](CC(=O)O)NC(C)=O)C(=O)N[C@H](C(=O)N1CCC[C@H]1C(=O)N[C@H](C(=O)O)C(C)(C)S)C(C)C` (Ac-DDIVP[Pen]-OH), 630 µM. Take `CC[C@H](C)[C@H](NC(=O)[C@@H](NC(=O)[C@H](CC(=O)O)NC(C)=O)C(C)(C)C)C(=O)N[C@H](C(=O)N1CCC[C@H]1C(=O)N[C@@H](CS)C(=O)O)C(C)C` (Ac-D[Tle]IVPC-OH): the IC50 turned out to be 20 µM. The same measure, in the same setting: as for `CC[C@H](C)[C@H](NC(=O)CCC(=O)O)C(=O)N[C@H](C(=O)N1CCC[C@H]1C(=O)N[C@@H](CS)C(=O)O)C(C)C` (Suc-IVPC-OH), the figure is 830 µM.

On to `CC[C@H](C)[C@H](NC(=O)C(CC(=O)O)NC(=O)[C@H](CC(=O)O)NC(C)=O)C(=O)N[C@H](C(=O)N1CCC[C@H]1C(=O)N[C@@H](CS)C(=O)O)C(C)C` (single isomer, unassigned), for which the 50% inhibitory concentration (IC50) was 4 µM. The same measure, in the same setting: as for `CC[C@H](C)[C@H](NC(=O)[C@H](CC(=O)O)NC(=O)[C@H](CC(=O)O)NC(C)=O)C(=O)N[C@H](C(=O)N1CCC[C@H]1C(=O)NC(CS)C(=O)O)C(C)C` (single isomer, unassigned), the figure is 330 µM; as for `CC[C@H](C)[C@H](NC(=O)[C@H](CC(=O)O)NC(=O)[C@H](CC(=O)O)NC(C)=O)C(=O)NC(C(=O)N1CCC[C@H]1C(=O)N[C@@H](CS)C(=O)O)C(C)C` (single isomer, unassigned), 830 µM; as for `CC[C@H](C)[C@H](NC(=O)C(CC(=O)O)NC(=O)[C@H](C)NC(C)=O)C(=O)N[C@H](C(=O)N1CCC[C@H]1C(=O)N[C@@H](CS)C(=O)O)C(C)C` (single isomer, unassigned), 200 µM. Consider `CC[C@H](C)[C@H](NC(=O)C(CC(=O)O)NC(=O)CCC(=O)O)C(=O)N[C@H](C(=O)N1CCC[C@H]1C(=O)N[C@@H](CS)C(=O)O)C(C)C` (single isomer, unassigned), for which half-maximal inhibition (IC50) was put at 76 µM.

Take `CC[C@H](C)[C@H](NC(=O)C(NC(=O)[C@H](CC(=O)O)NC(C)=O)C(C)C)C(=O)N[C@H](C(=O)N1CCC[C@H]1C(=O)N[C@@H](CS)C(=O)O)C(C)C` (single isomer, unassigned): inhibition was half-maximal at 7.5 µM (IC50). Same read-out and setting: as for Ac-DAIVPC-OH, the figure is 140 µM. Still for that read-out and setting: as for Ac-DDAVPC-OH, the figure is 580 µM; as for Ac-DDIAPC-OH, 890 µM. In turn, Ac-DDIVAC-OH returned an IC50 of 93 µM. On the same count and under the same terms, under Ac-DDIVPA-OH stands 710 µM; under Ac-DDIVPM-OH, 500 µM; under Ac-DDIVPS-OH, > 1000 µM. Ac-DIVPC-OH displayed a half-inhibitory concentration (IC50) of 130 µM. On the same count and under the same terms, as for H-DDIVPC-OH, the figure is 71 µM; as for H-GEAGDDIVPC-OH, 52 µM.

The target of a further experiment is Hepatitis C virus serine protease, NS3/NS4A (Hepatitis C virus, UniProt A3EZI9+D2K2A8). Put plainly: The apparent Ki value against NS3-4Apep protease. The experiment is classed as protein-complex assay, Hepacivirus hominis. As to conditions: read-out: Ki app.
Chain of Hepatitis C virus serine protease, NS3/NS4A (D2K2A8 whole entry): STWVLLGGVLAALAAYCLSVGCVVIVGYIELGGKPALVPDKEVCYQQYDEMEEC
Chain of Hepatitis C virus serine protease, NS3/NS4A (A3EZI9 whole entry): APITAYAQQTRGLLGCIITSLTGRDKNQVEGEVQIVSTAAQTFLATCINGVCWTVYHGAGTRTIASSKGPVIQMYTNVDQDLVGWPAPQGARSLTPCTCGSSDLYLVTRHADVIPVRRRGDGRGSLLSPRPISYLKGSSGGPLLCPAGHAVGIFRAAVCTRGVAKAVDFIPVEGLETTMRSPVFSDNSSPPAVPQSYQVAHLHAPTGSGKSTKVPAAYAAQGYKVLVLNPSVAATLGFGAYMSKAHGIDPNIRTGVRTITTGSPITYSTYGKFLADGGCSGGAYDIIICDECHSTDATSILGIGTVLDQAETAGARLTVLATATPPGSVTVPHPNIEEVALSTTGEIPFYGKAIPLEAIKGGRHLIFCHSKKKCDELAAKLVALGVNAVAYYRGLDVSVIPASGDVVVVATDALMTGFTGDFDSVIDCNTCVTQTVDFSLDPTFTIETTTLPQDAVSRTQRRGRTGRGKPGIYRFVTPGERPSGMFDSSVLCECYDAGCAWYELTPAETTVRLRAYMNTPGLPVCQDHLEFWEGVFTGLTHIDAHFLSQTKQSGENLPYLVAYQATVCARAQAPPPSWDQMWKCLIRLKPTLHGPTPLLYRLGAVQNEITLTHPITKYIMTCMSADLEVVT
As to `CC[C@H](C)[C@H](NC(=O)C(CC(=O)O)NC(=O)[C@H](CC(=O)O)NC(C)=O)C(=O)N[C@H](C(=O)N1CCC[C@H]1C(=O)N[C@@H](CS)C(=O)O)C(C)C` (single isomer, unassigned), the Ki came to 0.6 µM. The same measure, in the same setting: under H-DDIVPC-OH stands 14 µM.
